According to US11753363B2, “13-oxidized ingenol derivative and use thereof” (Tianjin Pharmaceutical Da Ren Tang Group Corp., Ltd. …, priority 2017, dated 2023):
≈ marks a conversion by molar mass, not a printed value.

How the values were obtained:
Assay type in all cases: cell-based
[1] = test system: mouse B16-F10 melanoma cells; assay: Inhibition of proliferation of tumor cell lines (MTT), B16-F10; settings: Mus musculus, B16-F10, 72 h, read-out: IC50 value of compound for inhibition of proliferation of tumor cell lines, B16-F10
Experimental: (§1) In this example, the inhibitory activity of compounds of the present invention against proliferation of seven human tumor cell lines and mouse B16-F10 melanoma cells was tested in vitro, and the IC50 value (50% inhibitory concentration) of compounds against each tumor cell line was calculated.
(§2) IC50 values of the compounds for A549, BGC-823, LOVO, MCF-7, SMMC-7721, HeLa, and B16-F10 cells were tested. The above cells were routinely cultured in 1640 nutrient solution containing 10% calf serum, with passage for 1 time every 2 days, and the cells in logarithmic growth phase were taken for experiments. After the A549, BGC-823, LOVO, MCF-7, SMMC-7721, HeLa and B16-F10 cells in logarithmic growth phase were subjected to 0.25% trypsin digestion, they were blown into a single cell suspension, and then the cell concentration was adjusted to about 1×10^5·mL^−1 using RPMI 1640 solution containing 10% calf serum. The cells were seeded in a 96-well culture plate at 100 μL per well, and cultured for 24 hours until the cells were attached. K562 cells were taken and centrifuged and diluted into 2×10^5·mL^−1 single cell suspension with RPMI 1640 solution containing 10% calf serum, and inoculated into a 96-well culture plate at 100 μL per well.
(§3) 100 μL of sample solution with different concentrations to be tested were added to the above 96-well plate, each concentration was added to 4 wells in parallel, and the cell control group was added with an equal volume of RPMI 1640 medium containing 10% calf serum to make a reaction volume of 200 μL. After incubating in an incubator at 37° C., 5% CO2 for 72 h, 10 μL of 5 mg·mL^−1 MTT solution was added to each well, and incubated at 37° C. for 4 h. The supernatant was carefully aspirated, 180 μL of DMSO was added to each well followed by shaking, and the absorbance (OD) value was measured at 570 nm on the microplate reader. The inhibition rate was calculated, and regression equation was established with the logarithmic value of the sample concentration and the inhibition rate (IR) to find the IC50 value of the compound against the cells to be tested. IR (%)=(1−OD value of the experimental group/OD value of the cell control group)×100%

[2] = test system: MCF-7 (human breast cancer cells); assay: Inhibition of proliferation of tumor cell lines (MTT), MCF-7; settings: Homo sapiens, MCF7, MCF-7, 72 h, read-out: IC50 value of compound for inhibition of proliferation of tumor cell lines, MCF-7
Experimental: as §1
(§4) The seven human tumor cell lines are: MCF-7 (human breast cancer cells), LOVO (human colon cancer cells), A549 (human lung cancer cells), BGC-823 (human gastric cancer cells), SMMC-7721 (human liver cancer cells), K562 (human leukemia cells), and HeLa (human cervical cancer cells).
as §2, §3

[3] = test system: LOVO (human colon cancer cells); assay: Inhibition of proliferation of tumor cell lines (MTT), LOVO; settings: Homo sapiens, 72 h, read-out: IC50 value of compound for inhibition of proliferation of tumor cell lines, LOVO
Experimental: as §1, §4, §2, §3

[4] = test system: SMMC-7721 (human liver cancer cells); assay: Inhibition of proliferation of tumor cell lines (MTT), SMMC-7721; settings: Homo sapiens, SMMC-7721, 72 h, read-out: IC50 value of compound for inhibition of proliferation of tumor cell lines, SMMC-7721
Experimental: as §1, §4, §2, §3

[5] = test system: HeLa (human cervical cancer cells); assay: Inhibition of proliferation of tumor cell lines (MTT), HeLa; settings: Homo sapiens, 72 h, read-out: IC50 value of compound for inhibition of proliferation of tumor cell lines, HeLA
Experimental: as §1, §4, §2, §3

[6] = test system: K562 (human leukemia cells); assay: Inhibition of proliferation of tumor cell lines (MTT), K562; settings: Homo sapiens, K562, 72 h, read-out: IC50 value of compound for inhibition of proliferation of tumor cell lines, K562
Experimental: as §1, §4, §2, §3

[7] = test system: A549 (human lung cancer cells); assay: Inhibition of proliferation of tumor cell lines (MTT), A549; settings: Homo sapiens, A549, 72 h, read-out: IC50 value of compound for inhibition of proliferation of tumor cell lines, A549
Experimental: as §1, §4, §2, §3

[8] = test system: neutrophilic granulocytes; assay: Neutrophil oxidative burst (luminol chemiluminescence); settings: Neutrophil, rat neutrophils, (Csample−Ccontrol)/Ccontrol×100%, read-out: Efficiency of compounds in stimulating neutrophil oxidative burst; for activation at 3 µg/mL: 3 μg/mL
Experimental: This example investigated the effect of compound on neutrophil oxidative burst and calculated the efficiency of each compound in stimulating neutrophil oxidative burst.
Blood was taken from the abdominal aorta of rat. The neutrophilic granulocytes were isolated by the operational procedure of the rat peripheral blood neutrophil isolation kit. The neutrophilic granulocytes were re-suspended by Hanks, and were plated in a 96-well white plate at 1×10^5 cells/well, 80 μL/well; 1 mM of Luminol was added at 10 μL/well; 10 μL of the sample was added to each well, and the degree of oxidative burst was evaluated by chemiluminescence. Calculation formula of Efficiency: Efficiency (%)=(Csample−Ccontrol)/Ccontrol×100%

[9] = test system: release of IL-8 by human keratinocytes (HaCaT); assay: Release of IL-8 by human keratinocytes (HaCaT), IL-8 Elisa; settings: Homo sapiens, HaCaT; 0.1 μg/mL; 24 h; (Csample−Ccontrol)/Ccontrol×100%; read-out: Efficiency of compound in stimulating the release of IL-8 by HaCaT cells
Experimental: This Example investigated the effect of compound on release of IL-8 by human keratinocytes (HaCaT) and calculated the efficiency of each compound in stimulating the release of IL-8 by human keratinocytes (HaCaT).
Hacat cells were cultured in MEM+10% FBS under the conditions of 37° C., 5% CO2, and when the cells reached 80-95% fusion, they were inoculated into a 96-well culture plate (1×10^4 cells/well) at 100 μL/well, and incubated for 18-24 h. The supernatant was discarded and the cells were incubated for 3-6 h in 1% FBS medium. Different concentrations of the sample solution of compound to be tested were added to each well, and the cell control group was added with an equal volume of 1% FBS medium at 10 μL/well, and incubated for 24 h. The supernatant was taken and tested according to the operation sequence of the IL-8 Elisa kit. Calculation formula of Efficiency: Efficiency (%)=(Csample−Ccontrol)/Ccontrol×100%

[10] = test system: BGC-823 (human gastric cancer cells); assay: Inhibition of proliferation of tumor cell lines (MTT), BGC-823; settings: Homo sapiens, BGC-823, 72 h, read-out: IC50 value of compound for inhibition of proliferation of tumor cell lines, BGC-823
Experimental: as §1, §4, §2, §3

Q: For `CCCCCCCCCCCC(=O)O[C@@]12C[C@@H](C)[C@]34C=C(C)[C@H](OC(C)=O)[C@@]3(O)[C@H](O)C(CO)=C[C@H](C4=O)[C@@H]1C2(C)C` [Compound 10, 3-O-acetyl-13-O-dodecanoyl-ingenol], which IC50 [1] is on record?
A: Its IC50 is 21.4 µg/mL (≈ 36.3 µM).

Q: And the IC50 [2]?
A: Its IC50 is 16.3 µg/mL (≈ 27.7 µM).

Q: What about the IC50 [3] of the same compound?
A: Its IC50 is 9.41 µg/mL (≈ 16 µM).

Q: And the IC50 [4]?
A: Its IC50 is 13.1 µg/mL (≈ 22.2 µM).

Q: And the IC50 [5]?
A: The IC50 was 10.9 µg/mL (≈ 18.5 µM).

Q: And the IC50 [6]?
A: The IC50 was 0.22 µg/mL (≈ 0.374 µM).

Q: And the IC50 [7]?
A: The IC50 was 10.7 µg/mL (≈ 18.2 µM).

Q: What about the activation at 0.1 µg/mL ([8]; 0.1 μg/mL) of the same compound?
A: Its activation at 0.1 µg/mL is 111%.

Q: And the activation at 0.1 µg/mL [9]?
A: The activation at 0.1 µg/mL was 79.5%.

Q: What about the IC50 [10] of the same compound?
A: The IC50 was 14.7 µg/mL (≈ 25 µM).

Q: `C/C=C(\C)C(=O)O[C@H]1C(C)=C[C@]23C(=O)[C@@H](C=C(CO)[C@@H](O)[C@]12O)[C@@H]1C(C)(C)[C@]1(OC(=O)CCCCCCCCCCC)C[C@H]3C` [Compound 20, 3-O-tigloyl-13-O-dodecanoyl-ingenol] was tested. Which IC50 [1] did it give?
A: The IC50 was 3.33 µg/mL (≈ 5.3 µM).

Q: And the IC50 [2]?
A: The IC50 was 6.8 µg/mL (≈ 10.8 µM).

Q: What about the IC50 [3] of the same compound?
A: Its IC50 is 9.91 µg/mL (≈ 15.8 µM).

Q: What about the IC50 [4] of the same compound?
A: Its IC50 is 18.4 µg/mL (≈ 29.3 µM).

Q: What about the IC50 [5] of the same compound?
A: The IC50 was 7.45 µg/mL (≈ 11.8 µM).

Q: And the IC50 [6]?
A: Its IC50 is 0.81 µg/mL (≈ 1.29 µM).

Q: And the IC50 [7]?
A: Its IC50 is 13.1 µg/mL (≈ 20.8 µM).

Q: What about the activation at 3 µg/mL [8] of the same compound?
A: The activation at 3 µg/mL was 43.8%.

Q: And the activation at 0.1 µg/mL [9]?
A: The activation at 0.1 µg/mL was 109%.

Q: What about the IC50 [10] of the same compound?
A: Its IC50 is 11 µg/mL (≈ 17.5 µM).

Q: How did the IC50 [1] turn out when `C/C=C(/C)C(=O)OCC1=C[C@@H]2C(=O)[C@]3(C=C(C)[C@H](O)[C@@]3(O)[C@@H]1O)[C@H](C)C[C@]1(OC(=O)CCCCCCCCCCC)[C@H]2C1(C)C` [Compound 15b, 20-O-angeloyl-13-O-dodecanoyl-ingenol] was run?
A: Its IC50 is 9.09 µg/mL (≈ 14.5 µM).

Q: And the IC50 [2]?
A: Its IC50 is 23.3 µg/mL (≈ 37.1 µM).

Q: And the IC50 [3]?
A: Its IC50 is 15.2 µg/mL (≈ 24.2 µM).

Q: What about the IC50 [4] of the same compound?
A: Its IC50 is 13.1 µg/mL (≈ 20.8 µM).

Q: What about the IC50 [5] of the same compound?
A: Its IC50 is 10.2 µg/mL (≈ 16.2 µM).

Q: And the IC50 [6]?
A: Its IC50 is 0.001 µg/mL (≈ 0.00159 µM).

Q: And the IC50 [7]?
A: The IC50 was 10 µg/mL (≈ 15.9 µM).

Q: What about the activation at 3 µg/mL [8] of the same compound?
A: The activation at 3 µg/mL was 360%.

Q: And the IC50 [10]?
A: Its IC50 is 20.6 µg/mL (≈ 32.8 µM).

Q: Which IC50 [1] does the source give for `CCCCCCCCCCCC(=O)O[C@@]12C[C@@H](C)[C@]34C=C(C)[C@H](O)[C@@]3(O)[C@H](O)C(COC(=O)CCC)=C[C@H](C4=O)[C@@H]1C2(C)C` [Compound 13, 20-O-n-butanoyl-13-O-dodecanoyl-ingenol] here?
A: Its IC50 is 30.5 µg/mL (≈ 49.4 µM).

Q: What about the IC50 [2] of the same compound?
A: The IC50 was 18 µg/mL (≈ 29.2 µM).

Q: What about the IC50 [3] of the same compound?
A: Its IC50 is 6.93 µg/mL (≈ 11.2 µM).

Q: What about the IC50 [4] of the same compound?
A: The IC50 was 12.5 µg/mL (≈ 20.3 µM).

Q: And the IC50 [5]?
A: The IC50 was 24.2 µg/mL (≈ 39.2 µM).

Q: What about the IC50 [6] of the same compound?
A: Its IC50 is 0.07 µg/mL (≈ 0.113 µM).

Q: What about the IC50 [7] of the same compound?
A: Its IC50 is 17.2 µg/mL (≈ 27.9 µM).

Q: What about the activation at 3 µg/mL [8] of the same compound?
A: Its activation at 3 µg/mL is 62.4%.

Q: And the activation at 0.1 µg/mL [9]?
A: Its activation at 0.1 µg/mL is 30.3%.

Q: And the IC50 [10]?
A: The IC50 was 12.4 µg/mL (≈ 20.1 µM).
